# Article PMC6150245 (Molecules : A Journal of Synthetic Chemistry and Natural …, 2017)
# Read-outs that look alike come from different tables or passages of the source. Bridge positions count the residues as written; N and C are the ends. Peptide text beside a SMILES is read from it. I, II: the chains in the order shown.
# Tests used:
# K. pneumoniae NDM-1 = format: cell-based, Klebsiella pneumoniae; settings: for MIC: K. pneumoniae NDM-1, CAMHB, 24 h, 37 °C; for MBC: K. pneumoniae NDM-1, sub-culture on MH agar, 99.9% death
# Description: (§1) After confirming antibacterial activity, the peptides were tested against gram-positive and gram-negative multidrug-resistant bacteria, including strains of clinical origin. The peptides, p-BthTX-I, des-Lys^12/(p-BthTX-I)2, and Lys^13-(p-BthTX-I)2 were serially diluted (512–1 μM) in cation-adjusted BBL MH II broth (CAMHB; Becton, Dickson and Co., Sparks, MD, USA) as described by CLSI. Bacteria at 5.0 × 10^5 CFU/mL were added to the media and incubated for 24 h at 37 °C. […] Assays were performed in duplicates, and sterile broth was used as the negative control. To determine the minimal bactericidal concentration (MBC), 100 µL from each well of the MIC assay plates that inhibited bacterial growth were sub-cultured onto MH agar (MHA) plates. […] If the ratio of MBC/MIC was >4, the activity of the peptide was considered bacteriostatic, as described previously.
# [1] = tested on: K. pneumoniae ATCCBAA1705; format: cell-based, Klebsiella pneumoniae; settings: for MIC: K. pneumoniae ATCCBAA1705 (KPC), CAMHB, 24 h, 37 °C, duplicate; for MBC: K. pneumoniae ATCCBAA1705, sub-culture on MH agar, 99.9% death
# Description: as §1
# E. coli CA4 = format: cell-based, Escherichia coli; settings: for MIC: E. coli CA4 (commensal), CAMHB, 24 h, 37 °C, duplicate; for MBC: E. coli CA4, sub-culture on MH agar, 99.9% death
# Description: as §1
# E. coli ATCC35218 = format: cell-based, Escherichia coli; settings: for MIC: E. coli ATCC35218, CAMHB, 24 h, 37 °C, duplicate; for MBC: E. coli ATCC35218, sub-culture on MH agar, 99.9% death
# Description: as §1
# S. epidermidis ATCC35984 = format: cell-based, Staphylococcus epidermidis; settings: for MIC: S. epidermidis ATCC35984, CAMHB, 24 h, 37 °C, duplicate; for MBC: S. epidermidis ATCC35984, sub-culture on MH agar, 99.9% death
# Description: as §1
# Serum stability assay = format: in vitro ADME; settings: 25% human male serum, 37 °C
# Description: Crude peptides were purified by semi-preparative HPLC on a Shimadzu system (Tokyo, Japan) using a C18 reversed phase column (10 × 250 mm, Phenomenex, Torrance, CA, USA). Solvent A contained 0.045% trifluoroacetic acid (TFA) in water. Elution was achieved using a linear gradient (5–35%) of solvent B (0.036% TFA in acetonitrile) for 120 min at 5 mL/min. The purity of the peptides was determined by analytical HPLC on a Shimadzu system using a C18 column (4.6 × 150 mm, Phenomenex, Torrance, CA, USA) with a linear gradient of solvent B (5–95%) for 30 min at 1 mL/min. Liquid chromatography-mass spectrometry (LC/MS) was performed using a C18 column (2.0 × 30 mm, Shimadzu) attached to analytical HPLC and an amaZon ion trap mass spectrometer (Bruker Daltonics) using ESI. Peptides were eluted using a linear gradient of solvent B (5–95%) for 15 min at 0.2 mL/min.
# Peptide stability assays were performed in diluted serum as previously described with minor modifications. First, 2 mL of 25% human male serum was centrifuged at 3000× g for 10 min; the supernatant was collected and incubated for 15 min at 37 °C. Next, peptides were added to the serum to a final concentration of 100 µM. Then, 200 µL of samples were collected at different time points during the assays, which were performed in duplicate. Analyses were performed by LC/MS and analytical HPLC, as described above.
# S. aureus SA33 = format: cell-based, Staphylococcus aureus; settings: for MBC: S. aureus SA33, sub-culture on MH agar, 99.9% death
# Description: as §1
# S. aureus SA16 = format: cell-based, Staphylococcus aureus; settings: S. aureus SA16 (MRSA); for MBC: sub-culture on MH agar, 99.9% death
# Description: as §1
# S. aureus SA88 = format: cell-based, Staphylococcus aureus; settings: for MIC: S. aureus SA88 (MRSA, daptomycin heteroresistant), CAMHB, 24 h, 37 °C, duplicate; for MBC: S. aureus SA88, sub-culture on MH agar, 99.9% death
# Description: as §1
# S. aureus ATCC25923 [2] = format: cell-based, Staphylococcus aureus; settings: for MIC: S. aureus ATCC25923, CAMHB, 24 h, 37 °C, duplicate; for MBC: S. aureus ATCC25923, sub-culture on MH agar, 99.9% death
# Description: as §1
# E. coli ATCC25922 = test: MIC, microdilution in MH broth (initial screening); format: cell-based, Escherichia coli; settings: 24 h, 37 °C, resazurin, triplicate
# Description: (§2) The minimum inhibitory concentrations (MIC) were determined following the Clinical and Laboratory Standards Institute (CLSI) recommendations. Antibacterial and antifungal activity tests were performed using the microdilution method. For initial screening, peptides were tested against C. albicans ATCC18804, E. coli ATCC25922, and S. aureus ATCC25923. Briefly, bacterial cells in MH broth (80 μL aliquots containing 1.5 × 10^7 CFU) were incubated with synthetic peptides (serial dilution from 512 to 1 μM) dissolved in Milli-Q water. After incubation for 24 h at 37 °C, the microtiter plates were analyzed visually by addition of resazurin. For the antifungal assays, the culture medium was RPMI 1640 buffered with L-glutamine (pH 7.2), 0.165 M morpholinepropanesulfonic acid (MOPS), and 2% glucose. Cell suspensions (final concentration of 1 × 10^3–2.5 × 10^3 CFU/mL) were inoculated on a microdilution plate previously prepared with serially diluted synthetic peptides (128–1 μM). The plates were incubated for 48 h at 37 °C. Each assay was performed in triplicates. Additionally, amphotericin B and fluconazole were used as the control drugs. MIC was defined as the lowest concentration of peptide at which no growth was detected.
# S. aureus ATCC25923 [3] = test: MIC, microdilution in MH broth (initial screening); format: cell-based, Staphylococcus aureus; settings: 24 h, 37 °C, resazurin, triplicate
# Description: as §2
# C. albicans ATCC18804 = test: Antifungal MIC, microdilution in RPMI 1640; format: cell-based, Candida albicans; settings: C. albicans ATCC18804, RPMI 1640, 48 h, 37 °C, peptides 128-1 µM, triplicate
# Description: as §2
# E. faecium HSJRP8 = format: cell-based, Enterococcus faecium; settings: for MIC: E. faecium HSJRP8 (daptomycin resistant), CAMHB, 24 h, 37 °C, duplicate; for MBC: E. faecium HSJRP8, sub-culture on MH agar, 99.9% death
# Description: as §1
# E. faecium VRE16 = format: cell-based, Enterococcus faecium; settings: for MIC: E. faecium VRE16 (vancomycin resistant), CAMHB, 24 h, 37 °C, duplicate; for MBC: E. faecium VRE16, sub-culture on MH agar, 99.9% death
# Description: as §1
Compound,MIC (K. pneumoniae NDM-1) [µM],MBC (K. pneumoniae NDM-1) [µM],MIC [1] [µM],MBC [1] [µM],MIC (E. coli CA4) [µM],MBC (E. coli CA4) [µM],MIC (E. coli ATCC35218) [µM],MBC (E. coli ATCC35218) [µM],MIC (S. epidermidis ATCC35984) [µM],MBC (S. epidermidis ATCC35984) [µM],MBC (S. aureus SA33) [µM],MBC (S. aureus SA16) [µM],MIC (S. aureus SA88) [µM],MBC (S. aureus SA88) [µM],MIC (S. aureus ATCC25923 [2]) [µM],MBC (S. aureus ATCC25923 [2]) [µM],MIC (E. coli ATCC25922) [µM],MIC (S. aureus ATCC25923 [3]) [µM],MIC (C. albicans ATCC18804) [µM],MIC (E. faecium HSJRP8) [µM],other results
CC(C)C[C@H](NC(=O)[C@H](Cc1c[nH]cn1)NC(=O)[C@H](Cc1ccc(O)cc1)NC(=O)[C@H](CCCNC(=N)N)NC(=O)[C@H](Cc1ccc(O)cc1)NC(=O)[C@H](CCCCN)NC(=O)[C@@H](N)CCCCN)C(=O)N[C@@H](CCCCN)C(=O)N1CCC[C@H]1C(=O)N[C@@H](Cc1ccccc1)C(=O)N[C@@H](CSSC[C@H](NC(=O)[C@H](Cc1ccccc1)NC(=O)[C@@H]1CCCN1C(=O)[C@H](CCCCN)NC(=O)[C@H](CC(C)C)NC(=O)[C@H](Cc1c[nH]cn1)NC(=O)[C@H](Cc1ccc(O)cc1)NC(=O)[C@H](CCCNC(=N)N)NC(=O)[C@H](Cc1ccc(O)cc1)NC(=O)[C@H](CCCCN)NC(=O)[C@@H](N)CCCCN)C(=O)N[C@@H](CCCCN)C(=O)N[C@@H](CCCCN)C(=O)O)C(=O)N[C@@H](CCCCN)C(=O)N[C@@H](CCCCN)C(=O)O [(p-BthTX-I)2],256,512,256,512,256,512,512,512,16,64,512,512,256,256,512,512,4,64,>128,8,"Incubation time after which the peptide was completely degraded in human serum (Serum stability assay; peptide 100 µM, analytical HPLC (C18) and LC/MS, duplicate): 30 min; MBC (E. faecium HSJRP8): >512 µM; MIC (E. faecium VRE16): 32 µM; MBC (E. faecium VRE16): >512 µM"
CC(C)C[C@H](NC(=O)[C@H](Cc1c[nH]cn1)NC(=O)[C@H](Cc1ccc(O)cc1)NC(=O)[C@H](CCCNC(=N)N)NC(=O)[C@H](Cc1ccc(O)cc1)NC(=O)[C@H](CCCCN)NC(=O)[C@@H](N)CCCCN)C(=O)N[C@@H](CCCCN)C(=O)N1CCC[C@H]1C(=O)N[C@@H](Cc1ccccc1)C(=O)N[C@@H](CSSC[C@H](NC(=O)[C@H](Cc1ccccc1)NC(=O)[C@@H]1CCCN1C(=O)[C@H](CCCCN)NC(=O)[C@H](CC(C)C)NC(=O)[C@H](Cc1c[nH]cn1)NC(=O)[C@H](Cc1ccc(O)cc1)NC(=O)[C@H](CCCNC(=N)N)NC(=O)[C@H](Cc1ccc(O)cc1)NC(=O)[C@H](CCCCN)NC(=O)[C@@H](N)CCCCN)C(=O)O)C(=O)O [des-Lys^12/Lys^13-(p-BthTX-I)2] (I: H-KKYRYHLKPFC-OH / II: H-KKYRYHLKPFC-OH; disulfide I:11-II:11),256,512,32,64,64,128,64,256,32,32,256,128,256,512,128,256,16,128,>128,8,"Incubation time in human serum after which further degradation products were observed (Serum stability assay; mass spectrometry, data not shown): 30 h; Incubation time in human serum after which the peptide remained intact (stable) (Serum stability assay; product formed from (p-BthTX-I)2 100 µM, LC/MS and HPLC): 24 h; MIC (S. aureus SA33; S. aureus SA33 (MRSA, tigecycline resistant), CAMHB, 24 h, 37 °C): 128 µM; MIC (S. aureus SA16; CAMHB, 24 h, 37 °C): 128 µM; MBC (E. faecium HSJRP8): 32 µM; MIC (E. faecium VRE16): 16 µM; MBC (E. faecium VRE16): 64 µM"
